Assays:
[1] = system: MTX-naïve adult patients with early RA (<3 years); assay: Study J: SF-36 (domains, PCS, MCS) with criteria- and content-based interpretation; type: in vivo, human; parameters: key to mean SF-36 PCS score / SF-36 Role-Physical score / SF-36 Bodily Pain score / SF-36 General Health score / SF-36 Vitality score / SF-36 Social Functioning score / SF-36 Role-Emotional score / SF-36 Mental Health score / SF-36 PCS score / SF-36 MCS score / SF-36 Physical Functioning score: scale 0-100, higher = better health-related quality of life; details: for SF-36 Bodily Pain score / SF-36 General Health score / SF-36 MCS score / SF-36 Mental Health score / SF-36 PCS score / SF-36 Physical Functioning score / SF-36 Role-Emotional score / SF-36 Role-Physical score / SF-36 Social Functioning score / SF-36 Vitality score: LOCF
Source text: Study J was a 2-year, double-blind, active comparator-controlled, Phase III study conducted at many sites worldwide.
The SF-36 was used to assess the 8 domains of HRQOL—physical functioning, role-physical, bodily pain, general health, vitality, social functioning, role-emotional, and mental health. These 8 domains were aggregated into Physical Component Summary (PCS) and Mental Component Summary (MCS) scores. The SF-36 has a scale of 0-100, with higher scores indicating better health-related quality of life.
Minimum clinically important differences (MCID) are defined as improvements of 5-10 points in the individual domains scores and 2.5-5 points in the PCS and MCS^5.
All HRQOL domains were measured at baseline, and after 12, 26, 42, 52, 76, and 104 weeks of therapy. In this analysis, mean scores and mean changes in each HRQOL domain are reported, as well as the PCS and MCS, at Weeks 12 and 104. Criteria-based interpretation was used to understand the meaning of differences in PCS scores for work loss and resource use and content-based interpretation for specific SF-36 items.^4
Study J was a 2-year, double-blind, active comparator-controlled, Phase III study conducted at 149 sites in North America, Europe, and Australia. […] The SF-36 was used to assess the 8 domains of HRQOL—physical functioning, role-physical, bodily pain, general health, vitality, social functioning, role-emotional, and mental health. These 8 domains were aggregated into Physical Component Summary (PCS) and Mental Component Summary (MCS) scores. The SF-36 has a scale of 0-100, with higher scores indicating better health-related quality of life. Minimum clinically important differences (MCID) are defined as improvements of 5-10 points in the individual domains scores and 2.5-5 points in the PCS and MCS (Kosinski M, et al. Arthritis Rheum 2000:43:1478-87). All HRQOL domains were measured at baseline, and after 12, 26, 42, 52, 76, and 104 weeks of therapy. In this analysis, we report mean scores and mean changes in each HRQOL domain, as well as the PCS and MCS, at Weeks 12 and 104. We used criteria-based interpretation to understand the meaning of differences in PCS scores for work loss and resource use and content-based interpretation for specific SF-36 items (Weinblatt M E, et al. Arthritis Rheum 2003; 48:35-45).

[2] = system: MTX-naïve adult patients with early RA (<3 years); assay: Study J: FACIT-F fatigue; type: in vivo, human; details: for FACIT-F mean change from baseline: LOCF
Source text: The Health Assessment Questionnaire Disability Index (HAQ DI) is a disease-specific tool that measures patient-reported physical function in 8 categories corresponding to normal activities in daily living. Fatigue is an important yet still often overlooked systemic symptom of RA. The Functional Assessment of Chronic Illness Therapy-Fatigue (FACIT-F) tool, measured by a 13-item, validated scale, assesses the impact of a disease and its therapy on fatigue.
Study J is described in detail in the above examples. The Health Assessment Questionnaire Disability Index (HAQ DI) and Functional Assessment of Chronic Illness Therapy-Fatigue (FACIT-F) were assessed at baseline, and following 12, 26, 42, 52, 76, and 104 weeks of therapy. Changes in scores were computed by subtracting the baseline from post-treatment score for each patient; mean changes were reported for each treatment group. The HAQ DI is assessed on a scale of 0-3, with higher numbers indicating greater disability. The minimum clinically important difference (MCID) is defined as changes ≧0.22 (Goldsmith C H, et al. J Rheumatol 1993; 20-561-5). The FACIT-F is assessed on a scale of 0-52, with higher scores indicating less fatigue. Changes of ≧4 are considered clinically meaningful (Cella D, et al. J Pain Symptom Manage 2002:24:547-61).

[3] = Baseline, percentages based on general US population norms
[4] = Week 104, percentages based on general US population norms

Question: How did the “SF-36 Bodily Pain score” value ([1]; Baseline) turn out when `CN(Cc1cnc2nc(N)nc(N)c2n1)c1ccc(C(=O)N[C@@H](CCC(=O)O)C(=O)O)cc1` [mtx alone, methotrexate] was run?
Answer: 29.9

Question: What about the “SF-36 General Health score” value ([1]; Baseline) of the same compound?
Answer: 49.7

Question: What about the “SF-36 MCS score” value ([1]; Baseline) of the same compound?
Answer: 43.5

Question: What about the “SF-36 Mental Health score” value ([1]; Baseline) of the same compound?
Answer: 62.1

Question: What about the “SF-36 PCS score” value ([1]; Baseline) of the same compound?
Answer: 32.2

Question: What about the “SF-36 Physical Functioning score” value ([1]; Baseline) of the same compound?
Answer: 38.9

Question: And the “SF-36 Role-Emotional score” value ([1]; Baseline)?
Answer: 41.1

Question: And the “SF-36 Role-Physical score” value ([1]; Baseline)?
Answer: 16.4

Question: And the “SF-36 Social Functioning score” value ([1]; Baseline)?
Answer: 56.5

Question: And the “SF-36 Vitality score” value ([1]; Baseline)?
Answer: 37.1

Question: And the “Interpretation of SF-36 PCS, Content-Based: Climb stairs” value [1, 3]?
Answer: 66.4%

Question: What about the “Interpretation of SF-36 PCS, Content-Based: Difficulty working” value [1, 3] of the same compound?
Answer: 88.1%

Question: What about the “Interpretation of SF-36 PCS, Content-Based: Have energy” value [1, 3] of the same compound?
Answer: 9.7%

Question: And the “Interpretation of SF-36 PCS, Content-Based: Time off work” value [1, 3]?
Answer: 64.8%

Question: What about the “Interpretation of SF-36 PCS, Content-Based: Walk on block” value [1, 3] of the same compound?
Answer: 44.4%

Question: And the “Interpretation of SF-36 PCS, criteria-based: Hospitalized” value [1, 3]?
Answer: 10.7%

Question: What about the “Interpretation of SF-36 PCS, criteria-based: Job loss” value [1, 3] of the same compound?
Answer: 30.3%

Question: And the “Interpretation of SF-36 PCS, criteria-based: MD visit” value [1, 3]?
Answer: 47.7%

Question: What about the “Interpretation of SF-36 PCS, criteria-based: Not work” value [1, 3] of the same compound?
Answer: 44.1%

Question: And the “SF-36 Bodily Pain score” value ([1]; Week 12)?
Answer: 51.0

Question: What about the “SF-36 General Health score” value ([1]; Week 12) of the same compound?
Answer: 58.9

Question: And the “SF-36 MCS score” value ([1]; Week 12)?
Answer: 49.0

Question: What about the “SF-36 Mental Health score” value ([1]; Week 12) of the same compound?
Answer: 71.2

Question: And the “SF-36 PCS score” value ([1]; Week 12)?
Answer: 38.3

Question: And the “SF-36 Physical Functioning score” value ([1]; Week 12)?
Answer: 51.1

Question: What about the “SF-36 Role-Emotional score” value ([1]; Week 12) of the same compound?
Answer: 60.5

Question: And the “SF-36 Role-Physical score” value ([1]; Week 12)?
Answer: 40.4

Question: What about the “SF-36 Social Functioning score” value ([1]; Week 12) of the same compound?
Answer: 72.0

Question: And the “SF-36 Vitality score” value ([1]; Week 12)?
Answer: 51.6

Question: And the “SF-36 Bodily Pain score” value ([1]; Week 104)?
Answer: 57.0

Question: What about the “SF-36 General Health score” value ([1]; Week 104) of the same compound?
Answer: 68.3

Question: And the “SF-36 MCS score” value ([1]; Week 104)?
Answer: 49.9

Question: What about the “SF-36 Mental Health score” value ([1]; Week 104) of the same compound?
Answer: 72.9

Question: What about the “SF-36 PCS score” value ([1]; Week 104) of the same compound?
Answer: 41.2

Question: What about the “SF-36 Physical Functioning score” value ([1]; Week 104) of the same compound?
Answer: 58.9

Question: And the “SF-36 Role-Emotional score” value ([1]; Week 104)?
Answer: 64.5

Question: And the “SF-36 Role-Physical score” value ([1]; Week 104)?
Answer: 48.6

Question: What about the “SF-36 Social Functioning score” value ([1]; Week 104) of the same compound?
Answer: 75.5

Question: And the “SF-36 Vitality score” value ([1]; Week 104)?
Answer: 56.9

Question: And the “Interpretation of SF-36 PCS, Content-Based: Climb stairs” value [1, 4]?
Answer: 30.7%

Question: What about the “Interpretation of SF-36 PCS, Content-Based: Difficulty working” value [1, 4] of the same compound?
Answer: 51.2%

Question: What about the “Interpretation of SF-36 PCS, Content-Based: Have energy” value [1, 4] of the same compound?
Answer: 26.6%

Question: And the “Interpretation of SF-36 PCS, Content-Based: Time off work” value [1, 4]?
Answer: 29.8%

Question: What about the “Interpretation of SF-36 PCS, Content-Based: Walk on block” value [1, 4] of the same compound?
Answer: 21.4%

Question: And the “Interpretation of SF-36 PCS, content-based: Climb stairs” value [1, 4]?
Answer: 30.7%

Question: And the “Interpretation of SF-36 PCS, content-based: Difficulty working” value [1, 4]?
Answer: 61.2%

Question: What about the “Interpretation of SF-36 PCS, content-based: Have energy” value [1, 4] of the same compound?
Answer: 26.6%

Question: And the “Interpretation of SF-36 PCS, content-based: Time off work” value [1, 4]?
Answer: 29.8%

Question: And the “Interpretation of SF-36 PCS, content-based: Walk on block” value [1, 4]?
Answer: 21.4%

Question: What about the “Interpretation of SF-36 PCS, criteria-based: Hospitalized” value [1, 4] of the same compound?
Answer: 7.7%

Question: And the “Interpretation of SF-36 PCS, criteria-based: Job loss” value [1, 4]?
Answer: 20.8%

Question: What about the “Interpretation of SF-36 PCS, criteria-based: MD visit” value [1, 4] of the same compound?
Answer: 34.6%

Question: And the “Interpretation of SF-36 PCS, criteria-based: Not work” value [1, 4]?
Answer: 24.2%

Question: And the “mean SF-36 PCS score” value ([1]; week 12 (baseline 31.7 combination, 32.2 MTX))?
Answer: 38.3

Question: What about the FACIT-F mean score ([2]; Baseline) of the same compound?
Answer: 29.0

Question: What about the “FACIT-F mean change from baseline” value ([2]; ΔWeek 12) of the same compound?
Answer: 7.8

Question: What about the “FACIT-F mean change from baseline” value ([2]; ΔWeek 26) of the same compound?
Answer: 9.5

Question: And the “FACIT-F mean change from baseline” value ([2]; ΔWeek 42)?
Answer: 9.3

Question: And the “FACIT-F mean change from baseline” value ([2]; ΔWeek 52)?
Answer: 9.0

Question: And the “FACIT-F mean change from baseline” value ([2]; ΔWeek 76)?
Answer: 8.5

Question: And the “FACIT-F mean change from baseline” value ([2]; ΔWeek 104)?
Answer: 8.8

Reference: patent US20120171123A1, “USES AND COMPOSITIONS FOR TREATMENT OF RHEUMATOID ARTHRITIS” (priority 2006, published 2012)
